One may read the MIC as the lowest concentration that inhibits growth of the organism. A low value points to greater potency.

This is an account of results in DBAASP.

Test in all cases: ≥ marks a high value that may be exact or a test limit, other limits are often not marked, values filed in µg/mL are converted to µM
Experiment [1] concerns Staphylococcus aureus.
The subject of experiment [2] is Bacillus cereus.
Experiment [3] has as its system Escherichia coli.
For experiment [4], the system named is Escherichia coli ATCC 25922.
The test system of experiment [5] is Bacillus subtilis ATCC 23857.
Experiment [6] deals with Bacillus subtilis 168.
Experiment [7] concerns Pseudomonas aeruginosa.
For experiment [8], the system named is Escherichia coli B.
For experiment [9], the system named is Staphylococcus epidermidis ATCC 12228.
For experiment [10], the system named is Pseudomonas aeruginosa ATCC 27853.
The test system of experiment [11] is Klebsiella pneumoniae ATCC 700603.
The subject of experiment [12] is Enterococcus faecalis ATCC 29212.
Experiment [13] concerns Acinetobacter baumannii ATCC 19606.
Experiment [14] has as its system Staphylococcus aureus ATCC 25923.
Experiment [15] deals with Pseudomonas aeruginosa ATCC 9027.

In brackets after ≈: the same amount, converted by molar mass.

As for `CC(C)C[C@H](NC(=O)[C@@H](N)Cc1ccccc1)C(=O)NCC(=O)NCC(=O)N[C@H](C(=O)N[C@@H](Cc1ccccc1)C(=O)N[C@@H](CCCCN)C(=O)NCC(=O)N[C@@H](C)C(=O)N[C@@H](CO)C(=O)N[C@@H](CCCCN)C(=O)N[C@H](C(=O)N[C@@H](Cc1ccccc1)C(=O)N1CCC[C@H]1C(=O)N[C@@H](C)C(=O)N[C@H](C(=O)N[C@@H](Cc1ccccc1)C(=O)NCC(=O)N[C@@H](CCCCN)C(=O)N[C@H](C(=O)O)C(C)C)C(C)C)C(C)C)C(C)C` [FLGGVFKGASKVFPAVFGKV], the MIC was > 125 µM in experiment [1], ≥ 125 µM in experiment [2] and > 125 µM in [3].

In the case of `CC(C)C[C@H](NC(=O)[C@@H](N)Cc1ccccc1)C(=O)NCC(=O)N[C@@H](CCCCN)C(=O)N[C@H](C(=O)N[C@@H](Cc1ccccc1)C(=O)N[C@@H](CCCCN)C(=O)NCC(=O)N[C@@H](C)C(=O)N[C@H](C(=O)N[C@@H](CCCCN)C(=O)N[C@H](C(=O)N[C@@H](Cc1ccccc1)C(=O)N1CCC[C@H]1C(=O)N[C@@H](C)C(=O)N[C@H](C(=O)N[C@@H](Cc1ccccc1)C(=O)NCC(=O)N[C@@H](CCCCN)C(=O)N[C@H](C(=O)O)C(C)C)C(C)C)C(C)C)C(C)C)C(C)C` [FLGKVFKGAVKVFPAVFGKV], the values for the MIC in experiment [1], in [2] and in [3] were > 59.9 µM, ≥ 59.9 µM and 59.9 µM (≈ 128 µg/mL), respectively.

On to `CC(C)C[C@H](NC(=O)[C@H](CCCCN)NC(=O)[C@H](Cc1ccccc1)NC(=O)[C@@H](NC(=O)[C@H](CCCCN)NC(=O)CNC(=O)[C@H](CC(C)C)NC(=O)[C@@H](N)Cc1ccccc1)C(C)C)C(=O)N[C@@H](C)C(=O)N[C@@H](CO)C(=O)N[C@@H](CCCCN)C(=O)N[C@H](C(=O)N[C@@H](Cc1ccccc1)C(=O)N1CCC[C@H]1C(=O)N[C@@H](C)C(=O)N[C@H](C(=O)N[C@@H](Cc1ccccc1)C(=O)N[C@@H](CCCCN)C(=O)N[C@@H](CCCCN)C(=O)N[C@H](C(=O)O)C(C)C)C(C)C)C(C)C` [FLGKVFKLASKVFPAVFKKV], for which the MIC in experiment [1] is 56.8 µM (≈ 128 µg/mL); in experiment [2], ≥ 56.8 µM; in [3] it was 7.1 µM (≈ 16 µg/mL).

Take `CC(C)C[C@H](NC(=O)[C@@H](N)Cc1ccccc1)C(=O)NCC(=O)N[C@H](C(=O)N[C@H](C(=O)N[C@@H](Cc1ccccc1)C(=O)N[C@@H](CCCCN)C(=O)N[C@@H](CCCCN)C(=O)N[C@@H](C)C(=O)N[C@@H](CO)C(=O)N[C@@H](CCCCN)C(=O)N[C@H](C(=O)N[C@@H](Cc1ccccc1)C(=O)N1CCC[C@H]1C(=O)N[C@@H](C)C(=O)N[C@H](C(=O)N[C@@H](Cc1ccccc1)C(=O)NCC(=O)N[C@@H](CCCCN)C(=O)N[C@H](C(=O)O)C(C)C)C(C)C)C(C)C)C(C)C)C(C)C` [FLGVVFKKASKVFPAVFGKV]: the MIC in experiment [1] was > 118 µM; in [2], ≥ 118 µM; in experiment [3], 118 µM (≈ 256 µg/mL).

`CC(C)C[C@H](NC(=O)[C@H](CCCCN)NC(=O)[C@H](Cc1ccccc1)NC(=O)[C@@H](NC(=O)[C@@H](NC(=O)CNC(=O)[C@H](CC(C)C)NC(=O)[C@@H](N)Cc1ccccc1)C(C)C)C(C)C)C(=O)N[C@@H](C)C(=O)N[C@@H](CO)C(=O)N[C@@H](CCCCN)C(=O)N[C@H](C(=O)N[C@H](C(=O)N1CCC[C@H]1C(=O)N[C@@H](C)C(=O)N[C@H](C(=O)N[C@@H](Cc1ccccc1)C(=O)NCC(=O)N[C@@H](CCCCN)C(=O)N[C@H](C(=O)O)C(C)C)C(C)C)C(C)C)C(C)C` [FLGVVFKLASKVVPAVFGKV]: the MIC in experiment [1] was found to be 7.6 µM (≈ 16 µg/mL); in experiment [2], 30.4 µM (≈ 64 µg/mL); in [3], 122 µM (≈ 256 µg/mL).

As to `CC[C@H](C)[C@H](NC(=O)CN)C(=O)N[C@@H](CCCCN)C(=O)N[C@@H](CCCN=C(N)N)C(=O)NCC(=O)N[C@H](C(=O)N[C@H](C(=O)N[C@@H](CCCCN)C(=O)N[C@H](C(=O)N[C@H](C(=O)N[C@@H](CCCCN)C(=O)N[C@@H](CCCN=C(N)N)C(N)=O)[C@@H](C)CC)[C@@H](C)CC)[C@@H](C)CC)[C@@H](C)CC` [GIKRGIIKIIKR], the MIC is > 128 µM in experiment [4] and ≥ 32 µM in experiment [5].

Regarding `CC[C@H](C)[C@H](NC(=O)[C@H](Cc1cnc[nH]1)NC(=O)[C@H](CCCCN)NC(=O)[C@H](CC(C)C)NC(=O)[C@H](CC(C)C)NC(=O)[C@H](CO)NC(=O)[C@H](CCSC)NC(=O)[C@H](C)NC(=O)[C@H](CCCCN)NC(=O)CN)C(=O)N[C@@H](CC(C)C)C(=O)N[C@@H](CCCCN)C(N)=O` [GKAMSLLKHILK], the MIC in experiment [6] is 9.3 µM (≈ 12.4 µg/mL); in experiment [1], > 100 µM; in [7], > 100 µM; in experiment [8] it was ≥ 40 µM.

As for `CC[C@H](C)[C@H](NC(=O)[C@H](Cc1cnc[nH]1)NC(=O)[C@H](CCCCN)NC(=O)[C@H](CC(C)C)NC(=O)[C@H](C)NC(=O)[C@H](CO)NC(=O)[C@H](CCSC)NC(=O)[C@H](Cc1c[nH]c2ccccc12)NC(=O)[C@H](CCCCN)NC(=O)CN)C(=O)N[C@@H](CC(C)C)C(=O)N[C@@H](CCCCN)C(N)=O` [GKWMSALKHILK], the MIC amounted to 2.7 µM (≈ 3.81 µg/mL) in [6], 130 µM (≈ 183 µg/mL) in [1], 100 µM (≈ 141 µg/mL) in experiment [7] and 20 µM (≈ 28.2 µg/mL) in experiment [8].

Consider `CSCC[C@H](NC(=O)[C@H](Cc1c[nH]c2ccccc12)NC(=O)[C@H](CCCCN)NC(=O)CN)C(=O)N[C@@H](CO)C(=O)N[C@@H](CC(C)C)C(=O)N[C@@H](CC(C)C)C(=O)N[C@@H](CCCCN)C(=O)N[C@@H](Cc1cnc[nH]1)C(=O)N[C@@H](Cc1c[nH]c2ccccc12)C(=O)N[C@@H](CC(C)C)C(=O)N[C@@H](CCCCN)C(N)=O` [GKWMSLLKHWLK], for which the MIC was 1.3 µM (≈ 1.98 µg/mL) in experiment [6], 13.8 µM (≈ 21.1 µg/mL) in experiment [1], 25 µM (≈ 38.1 µg/mL) in experiment [7] and 3.5 µM (≈ 5.34 µg/mL) in [8].

On to `CC[C@H](C)[C@H](NC(=O)[C@H](CCC(N)=O)NC(=O)[C@H](CCCCN)NC(=O)[C@H](CC(C)C)NC(=O)[C@H](CC(C)C)NC(=O)[C@H](CO)NC(=O)[C@H](CCSC)NC(=O)[C@H](Cc1c[nH]c2ccccc12)NC(=O)[C@H](CCCCN)NC(=O)CN)C(=O)N[C@@H](CC(C)C)C(=O)N[C@@H](CCCCN)C(N)=O` [GKWMSLLKQILK], for which the minimal inhibitory concentration (MIC) is 1.8 µM (≈ 2.6 µg/mL) in [6], 10.8 µM (≈ 15.6 µg/mL) in [1], 50 µM (≈ 72.2 µg/mL) in experiment [7] and 2.5 µM (≈ 3.61 µg/mL) in experiment [8].

Take `CC(C)C[C@H](NC(=O)[C@H](CC(C)C)NC(=O)[C@@H](NC(=O)[C@H](CCCCN)NC(=O)[C@H](C)NC(=O)[C@H](CCCN=C(N)N)NC(=O)[C@H](CCCCN)NC(=O)[C@H](C)NC(=O)[C@H](CC(C)C)NC(=O)CN)[C@@H](C)O)C(N)=O` [GLAKRAKTLL]: the MIC in experiment [9], in experiment [10], in experiment [11], in experiment [4], in experiment [12] and in experiment [13] was > 512 µM in each case. Also, the values for the MIC in experiment [5] and in experiment [14] were ≥ 512 µM and > 512 µM, respectively.

As for `CC[C@H](C)[C@H](NC(=O)[C@H](CCCCN)NC(=O)[C@H](CCCCN)NC(=O)[C@H](C)NC(=O)[C@@H](NC(=O)[C@H](C)NC(=O)[C@H](CC(C)C)NC(=O)[C@H](C)NC(=O)[C@H](C)NC(=O)[C@H](CCCCN)NC(=O)[C@H](CC(C)C)NC(=O)[C@H](CC(N)=O)NC(=O)[C@@H](N)CC(C)C)C(C)C)C(=O)N[C@@H](CC(C)C)C(N)=O` [LNLKAALAVAKKIL], the MIC in experiment [11] was 16 µM (≈ 23.4 µg/mL); in experiment [4] it was 8 µM (≈ 11.7 µg/mL); in experiment [5], 8 µM (≈ 11.7 µg/mL); in experiment [14], 32 µM (≈ 46.9 µg/mL); in experiment [15], 32 µM (≈ 46.9 µg/mL).

Turning to `CC[C@H](C)[C@H](NC(=O)CNC(=O)[C@@H](N)CCSC)C(=O)N[C@H](C(=O)N[C@@H](C)C(=O)NCC(=O)N[C@H](C(=O)N[C@H](C(=O)N[C@@H](CCCCN)C(=O)N[C@@H](Cc1ccccc1)C(=O)N[C@H](C(=O)N[C@@H](CCCCN)C(=O)NCC(=O)N[C@@H](CC(C)C)C(=O)N[C@H](C(=O)N[C@@H](CCC(=O)O)C(=O)N[C@@H](CCCCN)C(=O)N[C@@H](Cc1ccccc1)C(=O)N[C@H](C(=O)NCC(=O)N[C@@H](CCCCN)C(=O)O)[C@@H](C)O)[C@@H](C)CC)[C@@H](C)CC)[C@@H](C)CC)[C@@H](C)CC)[C@@H](C)CC` [MGIIAGIIKFIKGLIEKFTGK], the MIC in [4] is > 128 µM; in experiment [5], ≥ 128 µM.

For `CC[C@H](C)[C@H](NC(=O)[C@H](C)NC(=O)[C@H](CS)NC(=O)[C@H](Cc1ccc(O)cc1)NC(=O)[C@@H](NC(=O)[C@H](CO)NC(=O)[C@@H]1CCCN1C(=O)[C@@H](NC(=O)[C@@H](NC(=O)[C@H](CCCCN)NC(=O)[C@H](CO)NC(=O)[C@H](C)NC(=O)[C@@H](NC(=O)[C@H](CCCCN)NC(=O)CNC(=O)[C@@H](NC(=O)[C@@H](NC(=O)[C@@H](N)CO)C(C)C)[C@@H](C)CC)[C@@H](C)CC)C(C)C)C(C)C)C(C)C)C(=O)N[C@@H](CO)C(=O)N[C@@H](CCCCN)C(=O)O` [SVIGKIASKVVPSVYCAISK], the values for the MIC in experiment [2] and in experiment [3] were ≥ 125 µM and > 125 µM, respectively.
